Values quoted from earlier work, collected in patent publication US10993442B2, “Ultra-high loading glyphosate concentrate” (STEPAN COMPANY, priority 2008, dated 2021).
Structures can show the parent of a compound that is named as a salt.

Conditions: for Solubility in water, glyphosate acid equivalent: as acid equivalent; for Solubility in water: as salt

Structure (SMILES): O=C(O)CNCP(=O)(O)O [glyphosate potassium salt]
- Solubility in water, glyphosate acid equivalent: about 50 % by weight glyphosate acid equivalent (a.e.)
- Solubility in water: about 61 % by weight

Structure (SMILES): O=C(O)CNCP(=O)(O)O [glyphosate, N-phosphonomethylglycine]
- Water solubility (free acid form): low

Structure (SMILES): CC(C)N.O=C(O)CNCP(=O)(O)O [isopropylamine salt of glyphosate]
- Solubility in water, glyphosate acid equivalent: about 47 % by weight glyphosate acid equivalent (a.e.)
- Solubility in water: about 63 % by weight
